Results from paper doi:10.1101/2020.04.28.066902v2 (bioRxiv, 2020).
Entries after “also recorded” stand apart in the source; their conditions may differ.

Assay: Equilibrium peptide uptake in human OA cartilage explants
Assay type: in vitro ADME

## RKKRRQRRR [TAT-PTD]
500 mM NaCl added to the PBS, p=0.3, n=24
  partitioning coefficient with 500 mM NaCl vs untreated cartilage: not
Cartilage degraded in 5 mM trypsin for 24 hours prior to uptake, p=0.045, n=24
  partitioning coefficient after trypsin treatment vs untreated cartilage: reduced; also recorded: decreased partitioning coefficients; also recorded: decreased uptake
